Tests used:
Assay type in all cases: biochemical
[1] = target: T1, MELK (maternal embryonic leucine zipper kinase) (Homo sapiens, UniProt Q14680); assay: Z'-LYTE kinome assay at […] (ATP Km app); ADP-Glo dose-response with recombinant MELK; supported by biotin-CRO15 pull-down
T1 construct: recombinant MELK protein

AKT2 (PKB beta) = AKT2 (PKB beta) (Homo sapiens, UniProt P31751); assay: Z'-LYTE kinome assay at […], n = […]; conditions: read-out: CRO15 1 μM
GSK3B (GSK3 beta) = GSK3B (GSK3 beta) (Homo sapiens, UniProt P49841); assay: Z'-LYTE kinome assay at […] (ATP Km app), n = […]; conditions: read-out: CRO15 1 μM
Sequence of GSK3B (GSK3 beta) (P49841 whole entry): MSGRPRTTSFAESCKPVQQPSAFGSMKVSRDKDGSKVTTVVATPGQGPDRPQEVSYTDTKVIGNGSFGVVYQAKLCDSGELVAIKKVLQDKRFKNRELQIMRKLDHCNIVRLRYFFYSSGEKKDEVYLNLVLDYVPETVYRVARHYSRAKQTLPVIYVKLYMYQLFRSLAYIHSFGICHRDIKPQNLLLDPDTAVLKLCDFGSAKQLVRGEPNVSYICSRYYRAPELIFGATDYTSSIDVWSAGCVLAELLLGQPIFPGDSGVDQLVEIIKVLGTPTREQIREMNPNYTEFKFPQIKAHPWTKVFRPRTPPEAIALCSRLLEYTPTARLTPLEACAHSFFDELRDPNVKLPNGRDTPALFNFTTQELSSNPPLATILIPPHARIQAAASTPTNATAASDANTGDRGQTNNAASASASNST

MAPKAPK2 = MAPKAPK2 (Homo sapiens, UniProt P49137); assay: Z'-LYTE kinome assay at […] (ATP Km app), n = […]; conditions: read-out: CRO15 1 μM
Sequence of MAPKAPK2 (P49137 whole entry): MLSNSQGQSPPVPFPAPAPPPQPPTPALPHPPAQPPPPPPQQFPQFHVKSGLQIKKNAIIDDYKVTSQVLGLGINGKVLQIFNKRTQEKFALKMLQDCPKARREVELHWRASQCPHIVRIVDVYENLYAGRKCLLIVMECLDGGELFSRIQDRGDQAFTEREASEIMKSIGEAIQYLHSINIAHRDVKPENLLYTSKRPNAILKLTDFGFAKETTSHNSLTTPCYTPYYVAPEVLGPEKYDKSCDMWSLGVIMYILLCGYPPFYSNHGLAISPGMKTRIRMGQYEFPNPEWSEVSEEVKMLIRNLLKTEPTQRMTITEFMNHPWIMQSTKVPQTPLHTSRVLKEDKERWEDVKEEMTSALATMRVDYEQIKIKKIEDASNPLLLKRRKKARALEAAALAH

Sequence of AKT2 (PKB beta) (P31751 whole entry): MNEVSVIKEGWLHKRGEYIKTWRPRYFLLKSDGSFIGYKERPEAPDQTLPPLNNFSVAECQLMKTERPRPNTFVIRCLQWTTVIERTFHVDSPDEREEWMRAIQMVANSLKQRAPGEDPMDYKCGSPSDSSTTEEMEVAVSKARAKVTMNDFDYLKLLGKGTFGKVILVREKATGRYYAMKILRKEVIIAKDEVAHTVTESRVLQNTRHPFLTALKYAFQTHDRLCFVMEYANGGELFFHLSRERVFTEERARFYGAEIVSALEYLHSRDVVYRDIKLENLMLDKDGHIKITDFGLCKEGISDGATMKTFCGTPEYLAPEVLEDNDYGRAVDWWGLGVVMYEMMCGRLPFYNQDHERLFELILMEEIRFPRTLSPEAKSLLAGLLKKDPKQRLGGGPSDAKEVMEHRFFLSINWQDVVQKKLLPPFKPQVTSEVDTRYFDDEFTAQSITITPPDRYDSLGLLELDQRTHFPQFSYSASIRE
T1 sequence (Q14680 whole entry): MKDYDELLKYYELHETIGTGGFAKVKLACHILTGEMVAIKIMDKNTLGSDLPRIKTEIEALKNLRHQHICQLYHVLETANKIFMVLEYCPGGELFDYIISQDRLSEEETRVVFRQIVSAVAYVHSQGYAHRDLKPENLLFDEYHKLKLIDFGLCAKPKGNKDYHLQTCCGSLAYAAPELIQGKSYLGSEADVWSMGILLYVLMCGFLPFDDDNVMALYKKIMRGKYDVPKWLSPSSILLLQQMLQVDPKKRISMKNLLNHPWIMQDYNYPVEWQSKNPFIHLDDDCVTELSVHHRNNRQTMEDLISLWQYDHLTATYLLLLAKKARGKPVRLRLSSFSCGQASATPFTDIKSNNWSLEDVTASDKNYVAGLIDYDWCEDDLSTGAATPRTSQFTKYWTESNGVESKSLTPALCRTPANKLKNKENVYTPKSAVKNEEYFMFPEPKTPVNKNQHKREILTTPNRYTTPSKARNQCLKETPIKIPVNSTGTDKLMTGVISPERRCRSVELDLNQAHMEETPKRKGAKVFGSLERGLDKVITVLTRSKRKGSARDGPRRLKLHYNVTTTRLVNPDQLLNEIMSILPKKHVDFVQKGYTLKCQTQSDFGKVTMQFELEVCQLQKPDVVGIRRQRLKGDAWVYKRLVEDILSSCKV

Question: How did the inhibition at 1 µM [1] turn out when `Nc1nc(Nc2ccccc2SSc2ccccc2Nc2nc(N)nc(C(Cl)(Cl)Cl)n2)nc(C(Cl)(Cl)Cl)n1` [CRO15] was run?
Answer: 72%

Question: And the inhibition at 1 µM (AKT2 (PKB beta))?
Answer: 74%

Question: And the inhibition at 1 µM (GSK3B (GSK3 beta))?
Answer: 72%

Question: What about the inhibition at 1 µM (MAPKAPK2) of the same compound?
Answer: 90%

Source: PMC7801734, “Discovery of a new molecule inducing melanoma cell death: dual AMPK/MELK targeting for novel melanoma therapies” (Cell Death & Disease, 2021)
